# Like-named read-outs stand apart in the source and are kept apart here.
# Columns and labels:
# NZB5 = experiment: Cellular growth inhibition, NZB5 (3H-thymidine incorporation); type: cell-based, human
# Experimental: (§1) The compounds were evaluated against two early passage human cell lines NZB5 and NZOV9 (Marshall et al., Oncol. Res. 2004, 14, 297). The cells were grown in ITS medium (α-modified minimal essential medium supplemented insulin, transferrin, selenite, and 5% fetal bovine serum) and grown on 96-well tissue culture plates under an atmosphere of 5% O2, 5% CO2, and 90% N2. Individual wells contained 500-1,000 cells (depending on the growth rate) in a volume of 150 μL. Compounds were added at 10-fold concentration steps to a maximum of 20 μM and plates were incubated for five days, with ^3H-thymidine being added over the last 6 hrs. Cells were harvested and incorporated radioactivity measured. Duplicate samples were analyzed for each compound dose with multiple control samples.
# NZOV9 = experiment: Cellular growth inhibition, NZOV9 (3H-thymidine incorporation); type: cell-based, human
# Experimental: as §1
# p110β/p85 = p110β/p85 (Homo sapiens, UniProt P42338); experiment: Inhibition of isolated enzyme p110β/p85 (lipid kinase, [γ-33P]ATP, TLC); type: biochemical; settings: recombinant enzyme, 100 μM ATP, nine concentrations, average of two experiments
# Experimental: (§2) Compounds were evaluated for their ability to inhibit Class I PI 3-kinase enzymes p110δ/p85, p110α/p85, and p110β/p85. Reaction mixtures comprising 0.1 μg of a recombinant enzyme, 10 μg of L-α-phosphatidylinositol, and 2× Lipid Kinase Buffer (40 mM Tris-HCl, pH 7.4, 200 mM NaCl, 1 mM EDTA), which contains either DMSO only as a control or the test compound in DMSO (the final DMSO concentration is 1%), were activated by the addition of an ATP mix (5 mM MgCl2, 100 μM ATP, and 0.1 μL [γ^33P]ATP). Reactions were incubated at room temperature for 1 hr, and then stopped by the addition of 1M HCl. The lipids were then extracted using a two step procedure. Firstly, 200 μL of chloroform/methanol (1:1) was added, the biphasic reactions mixed and centrifuged briefly, and the inorganic phase was removed and discarded. Following this, 80 μL of methanol:HCl (1:1) was added and the same procedure followed. The organic phase (70 μL) was then transferred to a clean 1.6 mL tube and the reactions were dried using a Speedvac, with no heating, for 30 min. The reactions were spotted onto TLC plates (Merck Ltd) and developed for 1 hr in propanol-1:2 M acetic acid (13:7). The TLC plates were then dried at room temperature and quantified using a phosphorimager (StormImager, Amersham). Nine compound concentrations were used for each test compound to determine its IC50 value. Each experiment was performed twice and the average IC50 value is used herein.
# p110δ/p85 = p110δ/p85 (Homo sapiens, UniProt O00329); experiment: Inhibition of isolated enzyme p110δ/p85 (lipid kinase, [γ-33P]ATP, TLC); type: biochemical; settings: recombinant enzyme, 100 μM ATP, nine concentrations, average of two experiments
# Experimental: as §2
# p110α/p85 = p110α/p85 (Homo sapiens, UniProt P42336); experiment: Inhibition of isolated enzyme p110α/p85 (lipid kinase, [γ-33P]ATP, TLC); type: biochemical; settings: recombinant enzyme, 100 μM ATP, nine concentrations, average of two experiments
# Experimental: as §2
# [1] = Homo sapiens, NZB5, read-out: Cell IC50 NZB5
# [2] = Homo sapiens, NZOV9, read-out: Cell IC50 NZOV9
# [3] = Homo sapiens, NZB5, five days incubation, 3H-thymidine over the last 6 hrs, read-out: Cell IC50 NZB5
# [4] = Homo sapiens, NZOV9, five days incubation, 3H-thymidine over the last 6 hrs, read-out: Cell IC50 NZOV9
# Sequence of p110α/p85 (P42336 whole entry): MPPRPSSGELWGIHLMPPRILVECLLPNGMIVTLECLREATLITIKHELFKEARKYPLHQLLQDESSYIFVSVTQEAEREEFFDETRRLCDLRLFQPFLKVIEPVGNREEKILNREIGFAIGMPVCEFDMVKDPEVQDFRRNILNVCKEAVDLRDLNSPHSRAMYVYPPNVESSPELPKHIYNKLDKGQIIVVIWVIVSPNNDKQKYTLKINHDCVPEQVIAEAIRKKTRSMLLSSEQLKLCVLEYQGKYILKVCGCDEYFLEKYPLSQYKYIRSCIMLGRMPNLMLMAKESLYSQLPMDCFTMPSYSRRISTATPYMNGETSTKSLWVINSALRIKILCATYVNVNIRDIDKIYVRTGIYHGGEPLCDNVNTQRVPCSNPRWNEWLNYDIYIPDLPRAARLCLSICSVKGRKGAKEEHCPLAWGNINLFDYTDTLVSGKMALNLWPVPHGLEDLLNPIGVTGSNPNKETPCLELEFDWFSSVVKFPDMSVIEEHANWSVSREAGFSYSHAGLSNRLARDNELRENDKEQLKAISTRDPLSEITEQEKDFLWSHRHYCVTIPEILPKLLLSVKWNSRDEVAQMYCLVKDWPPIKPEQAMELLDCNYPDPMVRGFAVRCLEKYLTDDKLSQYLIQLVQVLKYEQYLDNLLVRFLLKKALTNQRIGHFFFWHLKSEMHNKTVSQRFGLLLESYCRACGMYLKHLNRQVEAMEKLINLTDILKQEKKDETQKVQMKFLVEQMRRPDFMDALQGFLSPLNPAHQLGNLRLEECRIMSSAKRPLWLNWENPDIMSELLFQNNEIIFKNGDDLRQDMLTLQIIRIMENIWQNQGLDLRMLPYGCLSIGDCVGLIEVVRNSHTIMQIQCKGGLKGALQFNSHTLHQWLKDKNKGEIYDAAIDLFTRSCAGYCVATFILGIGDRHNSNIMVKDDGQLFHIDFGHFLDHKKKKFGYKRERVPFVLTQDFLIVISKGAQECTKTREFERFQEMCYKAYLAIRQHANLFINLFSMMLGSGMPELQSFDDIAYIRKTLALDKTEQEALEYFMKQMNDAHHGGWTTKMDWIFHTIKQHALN
# Sequence of p110α/p85 (P27986 whole entry partner): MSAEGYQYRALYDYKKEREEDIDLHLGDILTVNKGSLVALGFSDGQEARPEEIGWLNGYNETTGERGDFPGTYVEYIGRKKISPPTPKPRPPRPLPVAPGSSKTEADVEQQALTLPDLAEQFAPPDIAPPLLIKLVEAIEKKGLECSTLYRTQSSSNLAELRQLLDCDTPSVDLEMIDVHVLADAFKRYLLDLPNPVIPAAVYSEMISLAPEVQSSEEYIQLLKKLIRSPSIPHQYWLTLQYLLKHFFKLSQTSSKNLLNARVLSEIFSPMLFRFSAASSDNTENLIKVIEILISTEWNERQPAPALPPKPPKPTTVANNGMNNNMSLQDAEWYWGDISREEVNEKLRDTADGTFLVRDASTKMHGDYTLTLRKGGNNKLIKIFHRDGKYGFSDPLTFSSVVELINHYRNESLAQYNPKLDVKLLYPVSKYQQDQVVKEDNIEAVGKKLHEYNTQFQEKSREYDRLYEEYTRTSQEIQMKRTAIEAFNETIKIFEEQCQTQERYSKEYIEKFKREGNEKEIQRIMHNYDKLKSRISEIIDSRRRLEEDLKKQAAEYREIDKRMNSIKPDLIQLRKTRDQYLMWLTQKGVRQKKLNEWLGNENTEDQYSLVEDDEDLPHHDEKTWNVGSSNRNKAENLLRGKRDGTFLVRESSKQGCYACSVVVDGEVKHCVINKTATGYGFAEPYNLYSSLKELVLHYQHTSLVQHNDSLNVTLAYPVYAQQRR
# Sequence of p110δ/p85 (O00329 whole entry, species assumed): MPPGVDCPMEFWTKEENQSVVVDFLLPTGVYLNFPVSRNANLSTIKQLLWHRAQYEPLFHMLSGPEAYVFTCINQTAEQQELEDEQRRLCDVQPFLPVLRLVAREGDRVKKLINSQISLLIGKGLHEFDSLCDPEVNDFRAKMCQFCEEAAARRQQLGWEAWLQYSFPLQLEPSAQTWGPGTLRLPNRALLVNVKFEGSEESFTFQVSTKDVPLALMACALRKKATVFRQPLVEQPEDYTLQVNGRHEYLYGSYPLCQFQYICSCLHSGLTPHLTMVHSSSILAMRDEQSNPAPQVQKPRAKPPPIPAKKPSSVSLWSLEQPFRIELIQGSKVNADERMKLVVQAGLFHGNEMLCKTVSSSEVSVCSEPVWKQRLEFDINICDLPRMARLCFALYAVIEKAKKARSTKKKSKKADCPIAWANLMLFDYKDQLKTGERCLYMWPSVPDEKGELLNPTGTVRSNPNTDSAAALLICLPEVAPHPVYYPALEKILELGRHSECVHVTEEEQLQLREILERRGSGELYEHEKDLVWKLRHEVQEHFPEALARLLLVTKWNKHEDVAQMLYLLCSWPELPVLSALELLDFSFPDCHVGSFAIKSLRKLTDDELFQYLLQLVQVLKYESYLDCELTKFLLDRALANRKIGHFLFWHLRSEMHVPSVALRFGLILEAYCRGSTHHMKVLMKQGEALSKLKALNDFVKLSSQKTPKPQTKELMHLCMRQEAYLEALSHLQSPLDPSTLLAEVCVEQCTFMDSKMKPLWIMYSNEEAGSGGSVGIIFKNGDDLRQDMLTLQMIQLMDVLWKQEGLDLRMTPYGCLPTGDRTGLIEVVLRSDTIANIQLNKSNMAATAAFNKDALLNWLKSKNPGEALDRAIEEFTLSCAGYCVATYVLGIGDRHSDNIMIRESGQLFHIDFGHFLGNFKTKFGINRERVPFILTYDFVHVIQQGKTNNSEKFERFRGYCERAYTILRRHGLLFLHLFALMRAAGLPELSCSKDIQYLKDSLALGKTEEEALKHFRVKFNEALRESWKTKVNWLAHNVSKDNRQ
# Sequence of p110δ/p85 (P27986 whole entry partner, species assumed): as the sequence (P27986 whole entry partner) above
# Sequence of p110β/p85 (P42338 whole entry, species assumed): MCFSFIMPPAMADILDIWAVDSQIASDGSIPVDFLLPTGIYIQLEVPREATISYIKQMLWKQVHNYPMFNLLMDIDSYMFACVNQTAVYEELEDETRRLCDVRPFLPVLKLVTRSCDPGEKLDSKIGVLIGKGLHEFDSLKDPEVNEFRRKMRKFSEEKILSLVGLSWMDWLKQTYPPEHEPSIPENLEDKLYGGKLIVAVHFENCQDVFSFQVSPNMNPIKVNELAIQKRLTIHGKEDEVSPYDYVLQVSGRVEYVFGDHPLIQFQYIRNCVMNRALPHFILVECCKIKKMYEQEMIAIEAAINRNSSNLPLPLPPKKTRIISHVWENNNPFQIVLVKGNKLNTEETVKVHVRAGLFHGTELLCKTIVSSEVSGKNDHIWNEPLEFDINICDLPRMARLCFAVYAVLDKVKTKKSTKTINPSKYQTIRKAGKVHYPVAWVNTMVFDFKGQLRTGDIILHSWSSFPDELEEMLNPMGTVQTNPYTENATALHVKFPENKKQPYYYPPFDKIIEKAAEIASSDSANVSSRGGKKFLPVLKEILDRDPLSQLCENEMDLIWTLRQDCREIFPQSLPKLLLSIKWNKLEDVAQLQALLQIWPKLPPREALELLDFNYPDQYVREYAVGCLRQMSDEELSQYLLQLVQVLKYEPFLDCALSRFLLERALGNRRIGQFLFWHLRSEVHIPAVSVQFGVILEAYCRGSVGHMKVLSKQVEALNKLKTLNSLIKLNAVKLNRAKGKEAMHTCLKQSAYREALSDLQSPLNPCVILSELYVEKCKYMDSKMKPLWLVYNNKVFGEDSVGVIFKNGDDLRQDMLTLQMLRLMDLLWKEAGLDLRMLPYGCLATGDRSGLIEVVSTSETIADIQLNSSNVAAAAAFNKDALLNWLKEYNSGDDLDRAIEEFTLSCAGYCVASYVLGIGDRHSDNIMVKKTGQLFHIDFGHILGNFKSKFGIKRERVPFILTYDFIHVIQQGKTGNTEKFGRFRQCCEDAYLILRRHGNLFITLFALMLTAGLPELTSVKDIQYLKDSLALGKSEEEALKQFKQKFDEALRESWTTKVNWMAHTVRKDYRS
# Sequence of p110β/p85 (P27986 whole entry partner, species assumed): as the sequence (P27986 whole entry partner) above
SMILES,IC50 (NZB5; [1]),IC50 (NZOV9; [2]),melting point,IC50 (p110δ/p85),further results
"COc1cccc2c1nc(C(F)F)n2-c1nc(N2CCOCC2)nc(N2CCCC(N(C)S(C)(=O)=O)C2)n1 (stereo in doubt) [Example 45, N-{(3R)-1-[4-[2-(difluoromethyl)-4-methoxy-1H-benzimidazol-1-yl]-6-(4-morpholinyl)-1,3,5-triazin-2-yl]piperidinyl}-N-methylmethanesulfonamide]",100 to 1000 nM,< 100 nM,224 to 226 °C,–,–
"COc1cccc2c1nc(C(F)F)n2-c1nc(N2CCOCC2)nc(N2CCCC(NS(C)(=O)=O)C2)n1 (stereo in doubt) [Example 46, N-{(3S)-1-[4-[2-(difluoromethyl)-4-methoxy-1H-benzimidazol-1-yl]-6-(4-morpholinyl)-1,3,5-triazin-2-yl]piperidinyl}methanesulfonamide]",100 to 1000 nM,< 100 nM,220 to 221 °C,–,–
"COc1cccc2c1nc(C(F)F)n2-c1nc(N2CCOCC2)nc(N2CCCC(N(C)S(C)(=O)=O)C2)n1 (stereo in doubt) [Example 47, N-{(3S)-1-[4-[2-(difluoromethyl)-4-methoxy-1H-benzimidazol-1-yl]-6-(4-morpholinyl)-1,3,5-triazin-2-yl]piperidinyl}-N-methylmethanesulfonamide]",100 to 1000 nM,< 100 nM,221 to 223 °C,–,–
"COc1cccc2c1nc(C(F)F)n2-c1nc(N2CCOCC2)nc(N2CCN(S(C)(=O)=O)CC2)n1 [Example 2, 2-(difluoromethyl)-4-methoxy-1-[4-[4-(methylsulfonyl)-1-piperazinyl]-6-(4-morpholinyl)-1,3,5-triazin-2-yl]-1H-benzimidazole]",100 to 1000 nM,100 to 1000 nM,311 to 314 °C,–,–
"CN(C)CCCOc1cccc2c1nc(C(F)F)n2-c1nc(OC2CCN(S(C)(=O)=O)CC2)nc(N2CCOCC2)n1 [Example 7, N-[3-({2-(difluoromethyl)-1-[4-{[1-(methylsulfonyl)-4-piperidinyl]oxy}-6-(4-morpholinyl)-1,3,5-triazin-2-yl]-1H-benzimidazol-4-yl}oxy)propyl]-N,N-dimethylamine]",–,–,–,–,IC50 (NZB5; [3]): 100 to 1000 nM; IC50 (NZOV9; [4]): 100 to 1000 nM; IC50 (p110β/p85): > 1000 nM
"COc1cccc2c1nc(C(F)F)n2-c1nc(N[C@@H]2CCN(S(C)(=O)=O)C2)nc(N2CCOCC2)n1 [Example 32, 4-[2-(difluoromethyl)-4-methoxy-1H-benzimidazol-1-yl]-N-[(3R)-1-(methylsulfonyl)pyrrolidinyl]-6-(4-morpholinyl)-1,3,5-triazin-2-amine]",100 to 1000 nM,< 100 nM,260 to 261 °C,–,–
"COc1cccc2c1nc(C(F)F)n2-c1nc(N2CCOCC2)nc(N(C)[C@@H]2CCN(S(C)(=O)=O)C2)n1 [Example 33, 4-[2-(difluoromethyl)-4-methoxy-1H-benzimidazol-1-yl]-N-methyl-N-[(3R)-1-(methylsulfonyl)pyrrolidinyl]-6-(4-morpholinyl)-1,3,5-triazin-2-amine]",< 100 nM,< 100 nM,238 to 240 °C,–,–
"COc1cccc2c1nc(C(F)F)n2-c1nc(N[C@@H]2CCCN(S(C)(=O)=O)C2)nc(N2CCOCC2)n1 [Example 40, 4-[2-(difluoromethyl)-4-methoxy-1H-benzimidazol-1-yl]-N-[(3R)-1-(methylsulfonyl)piperidinyl]-6-(4-morpholinyl)-1,3,5-triazin-2-amine]",100 to 1000 nM,< 100 nM,241 to 243 °C,–,–
"COc1cccc2c1nc(C(F)F)n2-c1nc(N[C@H]2CCCN(S(C)(=O)=O)C2)nc(N2CCOCC2)n1 [Example 42, 4-[2-(difluoromethyl)-4-methoxy-1H-benzimidazol-1-yl]-N-[(3S)-1-(methylsulfonyl)piperidinyl]-6-(4-morpholinyl)-1,3,5-triazin-2-amine]",–,–,239 to 241 °C,–,"IC50 (NZB5; read-out: Cell IC50 NZB5, five days incubation, 3H-thymidine over the last 6 hrs): 100 to 1000 nM; IC50 (NZOV9; read-out: Cell IC50 NZOV9, five days incubation, 3H-thymidine over the last 6 hrs): < 100 nM"
"COc1cccc2c1nc(C(F)F)n2-c1nc(OC2CCN(S(=O)(=O)CCN3CCN(S(C)(=O)=O)CC3)CC2)nc(N2CCOCC2)n1 [Example 52, 2-(difluoromethyl)-4-methoxy-1-[4-{[1-({2-[4-(methylsulfonyl)-1-piperazinyl]ethyl}sulfonyl)-4-piperidinyl]oxy}-6-(4-morpholinyl)-1,3,5-triazin-2-yl]-1H-benzimidazole]",–,–,251 to 254 °C,–,IC50 (NZB5; [3]): > 1000 nM; IC50 (NZOV9; [4]): > 1000 nM
"COc1cccc2c1nc(C(F)F)n2-c1nc(N2CCOCC2)nc(N(CCCN(C)C)C2CCN(S(=O)(=O)CCl)CC2)n1 [Example 59, N^1-{1-[(chloromethyl)sulfonyl]-4-piperidinyl}-N^1-[4-[2-(difluoromethyl)-4-methoxy-1H-benzimidazol-1-yl]-6-(4-morpholinyl)-1,3,5-triazin-2-yl]-N^3,N^3-dimethyl-1,3-propanediamine]",–,–,–,–,IC50 (p110β/p85): > 1000 nM
"COc1cccc2c1nc(C(F)F)n2-c1nc(N2CCOCC2)nc(N2CCC(NS(=O)(=O)CCl)CC2)n1 [Example 61, chloro-N-{1-[4-[2-(difluoromethyl)-4-methoxy-1H-benzimidazol-1-yl]-6-(4-morpholinyl)-1,3,5-triazin-2-yl]-4-piperidinyl}methanesulfonamide]",–,–,230 to 232 °C,< 100 nM,IC50 (p110α/p85): < 100 nM
"COc1cccc2c1nc(C(F)F)n2-c1nc(N[C@H]2CC[C@H](NS(C)(=O)=O)CC2)nc(N2CCOCC2)n1 [Example 78, trans-N-(4-{[4-[2-(difluoromethyl)-4-methoxy-1H-benzimidazol-1-yl]-6-(4-morpholinyl)-1,3,5-triazin-2-yl]amino}cyclohexyl)methanesulfonamide]",100 to 1000 nM,< 100 nM,269 to 272 °C,–,–
"COc1cccc2c1nc(C(F)F)n2-c1nc(N2CCOCC2)nc(N2CCN(S(=O)(=O)C(F)(F)F)CC2)n1 [Example 86, 2-(difluoromethyl)-4-methoxy-1-(4-(4-morpholinyl)-6-{4-[(trifluoromethyl)-sulfonyl]-1-piperazinyl}-1,3,5-triazin-2-yl)-1H-benzimidazole]",–,–,272 to 273 °C,> 1000 nM,IC50 (p110α/p85): 100 to 1000 nM
"COc1cccc2c1nc(C(F)F)n2-c1nc(N2CCOCC2)nc(N2CCC(NS(=O)(=O)C(F)(F)F)CC2)n1 [Example 87, N-{1-[4-[2-(difluoromethyl)-4-methoxy-1H-benzimidazol-1-yl]-6-(4-morpholinyl)-1,3,5-triazin-2-yl]-4-piperidinyl}trifluoromethanesulfonamide]",–,–,282 to 285 °C,100 to 1000 nM,IC50 (p110α/p85): < 100 nM
"COc1cccc2c1nc(C(F)F)n2-c1nc(N2CCOCC2)nc(N2CC(NS(=O)(=O)C(F)(F)F)C2)n1 [Example 88, N-{1-[4-[2-(difluoromethyl)-4-methoxy-1H-benzimidazol-1-yl]-6-(4-morpholinyl)-1,3,5-triazin-2-yl]-3-azetidinyl}(trifluoro)methanesulfonamide]",–,–,–,100 to 1000 nM,IC50 (p110α/p85): < 100 nM
"COc1cccc2c1nc(C(F)F)n2-c1nc(-c2ccc(S(=O)(=O)N3CCN(C)CC3)cc2)nc(N2CCOCC2)n1 [Example 95, 2-(difluoromethyl)-4-methoxy-1-[4-{4-[(4-methyl-1-piperazinyl)sulfonyl]phenyl}-6-(4-morpholinyl)-1,3,5-triazin-2-yl]-1H-benzimidazole]",–,–,–,> 1000 nM,–
"COc1cccc2c1nc(C(F)F)n2-c1nc(Nc2ccc(NS(C)(=O)=O)nc2)nc(N2CCOCC2)n1 [Example 100, N-(5-{[4-[2-(difluoromethyl)-4-methoxy-1H-benzimidazol-1-yl]-6-(4-morpholinyl)-1,3,5-triazin-2-yl]amino}-2-pyridinyl)methanesulfonamide]",–,–,302 to 306 °C,< 100 nM,IC50 (NZB5; [3]): 100 to 1000 nM; IC50 (NZOV9; [4]): < 100 nM; IC50 (p110α/p85): < 100 nM

# Reference: patent publication US8772287B2, “Pyrimidinyl and 1,3,5-triazinyl benzimidazole sulfonamides and their use in cancer therapy” (VetDC, Inc., priority 2009, dated 2014)
